This note sets out measurements from ChEMBL document CHEMBL4814030, “Optimization of ether and aniline based inhibitors of lactate dehydrogenase” (Bioorg Med Chem Lett, 2021).

Data set [1] concerns the target T1, L-lactate dehydrogenase A chain (Homo sapiens, UniProt P00338). Put plainly: Inhibition of LDHA in human A673 cells assessed as reduction in lactate production incubated for 2 hrs by fluorescence based assay. Format: cell-based.
For a further data set, the system named is A673. Put plainly: Cytotoxicity against human A673 cells assessed as reduction in cell viability incubated for 48 hrs by cell titer glo assay. The data set is classed as functional, cell-based. The conditions noted are these: A673, 48 h. A general note: In ATP-based viability assays light output follows the ATP content of the culture.
For data set [2], the target named is T1, L-lactate dehydrogenase A chain. Put plainly: Inhibition of recombinant human LDHA using sodium pyruvate as substrate preincubated for 5 mins followed by diaphorase/resazurin addition and measured after 20 mins by fluorescence based assay. (In general: The colour change of resazurin is a common sign of viable cells or microbes.)
A short description of data set [3]: Permeability of compound by PAMPA. Format: ADME. The conditions noted are these: read-out: permeability. (In general: PAMPA measures passive passage across an artificial lipid membrane.)
Data set [4] addresses T1, L-lactate dehydrogenase A chain. Put plainly: Inhibition of LDHA in human MIA PaCa2 cells assessed as reduction in lactate production incubated for 2 hrs by fluorescence based assay. Format: cell-based, MIA PaCa-2.
A short description of data set [5]: Metabolic stability in rat microsomes assessed as half life. The data set is classed as ADME, Microsome.
For the next data set, the system named is MIA PaCa-2. Put plainly: Cytotoxicity against human MIA PaCa-2 cells assessed as reduction in cell viability incubated for 48 hrs by cell titer glo assay. Format: functional, cell-based. The conditions noted are these: MIA PaCa-2, 48 h.
The nature of data set [6]: Kinetic solubility of compound. Format: physicochemical. The conditions noted are these: read-out: Kinetic_solubility.
Data set [7] deals with T1, L-lactate dehydrogenase A chain. Nature of the data set: Binding affinity to LDHA (unknown origin) by SPR analysis.

Values after ≈ are worked out from the molar mass of the structure shown. A value given as a limit tells only on which side of the number the result lay.

One may read the IC50 as the midpoint of a concentration-inhibition curve. For `NS(=O)(=O)c1ccc(Cc2c(-c3ccc(F)c(NC(=O)c4ccccc4)c3)nn(-c3nc(C(=O)O)cs3)c2CC2CC2)cc1F`, the concentration for half-maximal inhibition (IC50) is 2300 nM in data set [1]; 5.3 µM with A673; 7 nM in data set [2]; 5 µM in data set [4]; 17.4 µM in the data set on MIA PaCa-2. Moreover, in [3], the Papp was 6.4 ×10⁻⁶ cm/s. The t1/2 in [5] is reported as > 30 min. In data set [6], the solubility kinetic was > 98 µg/mL.
On to `NS(=O)(=O)c1ccc(Cc2c(-c3ccc(F)c(OCC4CCCO4)c3)nn(-c3nc(C(=O)O)cs3)c2CC2CC2)cc1F` (stereo unspecified), for which the values for the IC50 in [2] and in [4] were 5 nM and 2.9 µM, respectively.
Usually Kd stands for the free concentration of one partner at which half of the binding sites on the other are occupied at equilibrium, for simple one-to-one binding. In the case of `NS(=O)(=O)c1ccc(Cc2c(-c3ccc(F)c(OC4CC4)c3)nn(-c3nc(C(=O)O)cs3)c2CC2CC2)cc1F`, the 50% inhibitory concentration (IC50) amounted to 1900 nM in data set [1]; 1.5 µM in the data set on A673; 8 nM in data set [2]; 2.1 µM in data set [4]; 5.7 µM with MIA PaCa-2. In addition, the Papp in data set [3] stood at 5.8 ×10⁻⁶ cm/s. The t1/2 in [5] is reported as > 30 min. This compound showed a Kd in data set [7] of 0.004 nM. For the same compound, the solubility kinetic in data set [6] is > 87 µg/mL.
On to `COc1cc(-c2nn(-c3nc(C(=O)O)cs3)c(CC3CC3)c2Cc2ccc(S(N)(=O)=O)cc2)ccc1F`, for which the half-maximal inhibitory concentration (IC50) in [2] was 8 nM; in data set [4], 5.7 µM.
The matching figures for `NS(=O)(=O)c1ccc(Cc2c(-c3cccc(N4CCCC(C(F)(F)F)C4)c3)nn(-c3nc(C(=O)O)cs3)c2CC2CC2)cc1F` (stereo unspecified): 59 nM and 6.9 µM.
For the compound `COc1cccc(-c2nn(-c3nc(C(=O)O)cs3)cc2Cc2ccc(S(N)(=O)=O)cc2)c1`, the 50% inhibitory concentration (IC50) in [2] is 90 nM; in data set [4], > 57 µM.
As to `CC(C)N1CC2(CN(c3cc(-c4nn(-c5nc(C(=O)O)cs5)c(CC5CC5)c4Cc4ccc(S(N)(=O)=O)c(F)c4)ccc3F)C2)C1`, the values for the IC50 in data set [2] and in data set [4] were 37 nM and 24.1 µM, respectively.
As for `NS(=O)(=O)c1ccc(Cc2c(-c3ccc(F)c(OCc4cccc(F)c4)c3)nn(-c3nc(C(=O)O)cs3)c2CC2CC2)cc1F`, the half-maximal inhibitory concentration (IC50) in [1] was found to be 730 nM; in the data set on A673, 0.55 µM; in data set [2], 22 nM; in [4], 0.67 µM; in the data set with MIA PaCa-2, 2.1 µM. In [3], the Papp is 2.9 ×10⁻⁶ cm/s. Besides, the t1/2 in data set [5] is recorded as < 1 min. In [7], this compound came in with a Kd of 0.91 nM. Moreover, the solubility kinetic in [6] amounted to 10.7 µg/mL (≈ 16.3 µM).
For the compound `NS(=O)(=O)c1ccc(Cc2cn(-c3nc(C(=O)O)cs3)nc2-c2cccc(OCc3cccnc3)c2)cc1`, the 50% inhibitory concentration (IC50) in data set [2] was 77 nM; in data set [4], > 57 µM.
On the same counts, the results for `NS(=O)(=O)c1ccc(Cc2c(-c3ccc(F)c(N4CCCC4=O)c3)nn(-c3nc(C(=O)O)cs3)c2CC2CC2)cc1F` are 111 nM and 6 µM.
For the compound `COc1cccc(COc2cccc(-c3nn(-c4nc(C(=O)O)cs4)cc3Cc3ccc(S(N)(=O)=O)cc3)c2)c1`, the 50% inhibitory concentration (IC50) in data set [2] was 21 nM; in data set [4], 5.4 µM.
In the case of `NS(=O)(=O)c1ccc(Cc2c(-c3ccc(F)c(Oc4cccc(F)c4)c3)nn(-c3nc(C(=O)O)cs3)c2CC2CC2)cc1F`, the figures for the IC50 in data set [2] and in [4] were 27 nM and 0.97 µM, respectively.
Regarding `NS(=O)(=O)c1ccc(Cc2cn(-c3nc(C(=O)O)cs3)nc2-c2cccc(OCC3CCCC3)c2)cc1`, the half-inhibitory concentration (IC50) in [2] is 29 nM; in data set [4], 7.7 µM.
The matching figures for `NS(=O)(=O)c1ccc(Cc2c(-c3ccc(F)c(Oc4ccc(F)cc4)c3)nn(-c3nc(C(=O)O)cs3)c2CC2CC2)cc1F`: 41 nM and 1.7 µM.
On the same counts, the results for `NS(=O)(=O)c1ccc(Cc2c(-c3cccc(N4CCC(F)(F)CC4)c3)nn(-c3nc(C(=O)O)cs3)c2CC2CC2)cc1F` are 17 nM and 8.7 µM.
Turning to `NS(=O)(=O)c1ccc(Cc2c(-c3ccc(F)c(Oc4ccc(C(F)(F)F)cc4)c3)nn(-c3nc(C(=O)O)cs3)c2CC2CC2)cc1F`, the 50% inhibitory concentration (IC50) in data set [2] was determined as 71 nM; in [4] it was 1.1 µM.
`NS(=O)(=O)c1ccc(Cc2c(-c3cccc(OC4CCCC4)c3)nn(-c3nc(C(=O)O)cs3)c2CC2CC2)cc1F`: the IC50 in data set [2] was found to be 13 nM; in [4] it was 0.71 µM.
As for `CC(C)(C)NC(=O)c1cc(-c2nn(-c3nc(C(=O)O)cs3)c(CC3CC3)c2Cc2ccc(S(N)(=O)=O)c(F)c2)ccc1F`, the IC50 in data set [2] came to 6 nM; in [4] it was 11.7 µM.
With `NS(=O)(=O)c1ccc(Cc2c(-c3ccc(F)c(C(=O)NCc4ccccc4)c3)nn(-c3nc(C(=O)O)cs3)c2CC2CC2)cc1F`, the concentration for half-maximal inhibition (IC50) in [1] is 4700 nM; in the data set with A673, 5.1 µM; in data set [2], 8 nM; in data set [4] it was 9.1 µM; in the data set on MIA PaCa-2, 15.7 µM. Also, in data set [3], the Papp is 8.7 ×10⁻⁶ cm/s. In addition, the t1/2 in data set [5] came to 14.9 min. The solubility kinetic in data set [6] was determined as 81 µg/mL (≈ 122 µM).
Regarding `NS(=O)(=O)c1ccc(Cc2c(-c3ccc(F)c(Oc4ccccc4)c3)nn(-c3nc(C(=O)O)cs3)c2CC2CC2)cc1`, the figures for the half-maximal inhibitory concentration (IC50) in [2] and in data set [4] were 34 nM and 1.7 µM, respectively.
On the same counts, the results for `NS(=O)(=O)c1ccc(Cc2c(-c3cccc(N4CCC(C(F)(F)F)CC4)c3)nn(-c3nc(C(=O)O)cs3)c2CC2CC2)cc1F` are 47 nM and 2.4 µM.
On the same counts, the results for `NS(=O)(=O)c1ccc(Cc2cn(-c3nc(C(=O)O)cs3)nc2-c2cccc(Oc3ccccc3)c2)cc1` are 17 nM and 9.4 µM.
The matching figures for `NS(=O)(=O)c1ccc(Cc2c(-c3cccc(Oc4cccc(F)c4)c3)nn(-c3nc(C(=O)O)cs3)c2CC2CC2)cc1`: 1060 nM and 19 µM.
Regarding `Cc1ccc(COc2cccc(-c3nn(-c4nc(C(=O)O)cs4)cc3Cc3ccc(S(N)(=O)=O)cc3)c2)cc1`, the IC50 in data set [2] came out at 39 nM; in [4], 7.5 µM.
The matching figures for `NS(=O)(=O)c1ccc(Cc2cn(-c3nc(C(=O)O)cs3)nc2-c2cccc(OCc3ccccn3)c2)cc1`: 23 nM and > 57 µM.
As to `NS(=O)(=O)c1ccc(Cc2c(-c3ccc(F)c(OCC4CCOC4)c3)nn(-c3nc(C(=O)O)cs3)c2CC2CC2)cc1F` (stereo unspecified), the IC50 came out at 5 nM in data set [2] and 3 µM in data set [4].
Consider `NS(=O)(=O)c1ccc(Cc2c(-c3cccc(N4CCC(F)(F)C4)c3)nn(-c3nc(C(=O)O)cs3)c2CC2CC2)cc1F`, for which the IC50 was 15 nM in [2] and 4.2 µM in data set [4].
On to `NS(=O)(=O)c1ccc(Cc2c(-c3ccc(F)c(OCc4ccc(F)cc4)c3)nn(-c3nc(C(=O)O)cs3)c2CC2CC2)cc1`, for which the IC50 in [2] was 84 nM; in data set [4] it was 3.3 µM.
In the case of `NS(=O)(=O)c1ccc(Cc2cn(-c3nc(C(=O)O)cs3)nc2-c2cccc(OCc3cccc(F)c3)c2)cc1`, the IC50 in data set [2] worked out at 26 nM; in data set [4], 6.1 µM.
On the same counts, the results for `NS(=O)(=O)c1ccc(Cc2c(-c3ccc(F)c(C(=O)N4CCOCC4)c3)nn(-c3nc(C(=O)O)cs3)c2CC2CC2)cc1F` are 22 nM and 3.2 µM.
Turning to `NS(=O)(=O)c1ccc(Cc2c(-c3cccc(N4CCCC(F)(F)C4)c3)nn(-c3nc(C(=O)O)cs3)c2CC2CC2)cc1F`, the values for the IC50 in data set [2] and in [4] were 18 nM and 8.6 µM, respectively.
Take `NS(=O)(=O)c1ccc(Cc2c(-c3ccc(F)c(C(=O)N4CCCC4)c3)nn(-c3nc(C(=O)O)cs3)c2CC2CC2)cc1F`: the IC50 in data set [1] is 16600 nM; in the data set on A673, > 50 µM; in data set [2], 154 nM; in data set [4], 19.9 µM; with MIA PaCa-2, 6.6 µM. For the same compound, the Papp in [3] is 5.7 ×10⁻⁶ cm/s. In data set [5], the t1/2 was > 30 min. The solubility kinetic in data set [6] is > 93 µg/mL.
